Patent publication US12655116B2, “Substituted isophthalic acid diamides” (Bayer Aktiengesellschaft, priority 2020, dated 2026)

Legend:
ECHCG [1] = assay: Post-emergence herbicidal action against ECHCG; format: in vivo, Echinochloa crus-galli
In short: (§1)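 Greenhouse pot plants in sandy loam were sprayed at the one-leaf stage, 2 to 3 weeks after sowing, with WP or EC formulations as aqueous suspension or emulsion (600 to 800 l/ha water, 0.2% wetting agent). About 3 weeks later, damage was scored visually against untreated controls as % action (100% = dead, 0% = like control).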

PHBPU [2] = assay: Post-emergence herbicidal action against PHBPU; format: in vivo, Pharbitis purpurea
In short: as §1

AVEFA [3] = assay: Post-emergence herbicidal action against AVEFA; format: in vivo, Avena fatua; conditions: 20 g/ha, visual assessment about 3 weeks after treatment, 100% = plants have died, 0% = like control plants
Description: Seeds of monocotyledonous and dicotyledonous weed and crop plants are laid out in sandy loam soil in wood-fiber pots, covered with soil and cultivated in a greenhouse under good growth conditions. 2 to 3 weeks after sowing, the test plants are treated at the one-leaf stage. The compounds of the invention, formulated in the form of wettable powders (WP) or as emulsion concentrates (EC), are then sprayed onto the green parts of the plants in the form of an aqueous suspension or emulsion at a water application rate equivalent to 600 to 800 l/ha, with addition of 0.2% wetting agent. After the test plants have been left to stand in the greenhouse under optimal growth conditions for about 3 weeks, the action of the preparations is assessed visually in comparison to untreated controls (herbicidal action in percent (%): 100% activity=the plants have died, 0% activity=like control plants). […] The tables below illustrate, in an illustrative manner, the post-emergence herbicidal action of the compounds of the invention, the herbicidal activity being stated in percent.

ECHCG [4] = assay: Pre-emergence herbicidal action against ECHCG; format: in vivo, Echinochloa crus-galli
In short: (§2)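 Visual rating at 3 weeks vs untreated pots; 0–100% scale, 100% = plants died. Treatment: aqueous WP/EC spray onto covering soil, 600–800 l/ha, 0.2% wetter, seeds in sandy loam.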

ALOMY [5] = assay: Pre-emergence herbicidal action against ALOMY; format: in vivo, Alopecurus myosuroides; conditions: for Pre-emergence action against ALOMY (herbicidal activity): 80 g/ha, scored visually after 3 weeks vs untreated controls (100% = plants have died, 0% = like control plants)
In short: as §2

AMARE [6] = assay: Post-emergence herbicidal action against AMARE; format: in vivo, Amaranthus retroflexus; conditions: 20 g/ha, visual assessment about 3 weeks after treatment, 100% = plants have died, 0% = like control plants
In short: as §1

VIOTR [7] = assay: Pre-emergence herbicidal action against VIOTR; format: in vivo, Viola tricolor
In short: as §2

MATIN [8] = assay: Pre-emergence herbicidal action against MATIN; format: in vivo, Matricaria inodora
In short: as §2

ABUTH [9] = assay: Pre-emergence herbicidal action against ABUTH; format: in vivo, Abutilon theophrasti; conditions: for Pre-emergence action against ABUTH (herbicidal activity): 80 g/ha, scored visually after 3 weeks vs untreated controls (100% = plants have died, 0% = like control plants); for Pre-emergence action against ABUTH (herbicidal activity in percent): dosage 20 g/ha, scored visually after 3 weeks vs untreated controls, 100% = plants have died, 0% = like control plants
In short: as §2

MATIN [10] = assay: Post-emergence herbicidal action against MATIN; format: in vivo, Matricaria inodora
In short: as §1

PHBPU [11] = assay: Pre-emergence herbicidal action against PHBPU; format: in vivo, Pharbitis purpurea; conditions: dosage 80 g/ha
In short: as §2

AVEFA [12] = assay: Pre-emergence herbicidal action against AVEFA; format: in vivo, Avena fatua; conditions: 80 g/ha, pre-emergence
In short: as §2

SETVI [13] = assay: Pre-emergence herbicidal action against SETVI; format: in vivo, Setaria viridis; conditions: dosage 80 g/ha
In short: as §2

ABUTH [14] = assay: Post-emergence herbicidal action against ABUTH; format: in vivo, Abutilon theophrasti; conditions: visual assessment about 3 weeks after treatment vs untreated controls
In short: as §1

AMARE [15] = assay: Pre-emergence herbicidal action against AMARE; format: in vivo, Amaranthus retroflexus
In short: as §2

VERPE [16] = assay: Pre-emergence herbicidal action against VERPE; format: in vivo, Veronica persica
In short: as §2

SETVI [17] = assay: Post-emergence herbicidal action against SETVI; format: in vivo, Setaria viridis
In short: as §1

ALOMY [18] = assay: Post-emergence herbicidal action against ALOMY; format: in vivo, Alopecurus myosuroides; conditions: dosage 20 g/ha, visual assessment about 3 weeks after treatment vs untreated controls
In short: as §1

VIOTR [19] = assay: Post-emergence herbicidal action against VIOTR; format: in vivo, Viola tricolor
In short: as §1

VERPE [20] = assay: Post-emergence herbicidal action against VERPE; format: in vivo, Veronica persica
In short: as §1

DIGSA = assay: Pre-emergence herbicidal action against DIGSA; format: in vivo, Digitaria sanguinalis
In short: as §2

[21] = 20 g/ha, scored visually after 3 weeks vs untreated controls, 100% = plants have died, 0% = like control plants
[22] = 80 g/ha, scored visually after 3 weeks vs untreated controls (100% = plants have died, 0% = like control plants)

Structure (SMILES) | Post-emergence action against ECHCG in % (ECHCG [1]; dosage 20 g/ha) [%] | Post-emergence action against PHBPU in % (PHBPU [2]; dosage 20 g/ha) [%] | Post-emergence action at 20 g/ha against AVEFA in % (AVEFA [3]) [%] | Pre-emergence action against ECHCG in % (ECHCG [4]; 80 g/ha) [%] | Pre-emergence action against ALOMY (herbicidal activity) (ALOMY [5]) [%] | Post-emergence action at 20 g/ha against AMARE in % (AMARE [6]) [%] | Pre-emergence action against VIOTR in % (VIOTR [7]; dosage 20 g/ha) [%] | Pre-emergence action against VIOTR in % (VIOTR [7]; dosage 80 g/ha) [%] | Pre-emergence action against MATIN in % (MATIN [8]; dosage 20 g/ha) [%] | Pre-emergence action against MATIN in % (MATIN [8]; dosage 80 g/ha) [%] | Pre-emergence action against ABUTH (herbicidal activity) (ABUTH [9]) [%] | Pre-emergence action against ABUTH (herbicidal activity in percent) (ABUTH [9]) [%] | Post-emergence action against MATIN in % (MATIN [10]; dosage 20 g/ha) [%] | Pre-emergence action against AVEFA in % (AVEFA [12]) [%] | Pre-emergence action against SETVI in % (SETVI [13]) [%] | Post-emergence action against ABUTH in % (ABUTH [14]; dosage 20 g/ha) [%] | Pre-emergence action against AMARE in % (AMARE [15]; [21]) [%] | Pre-emergence action against AMARE in % (AMARE [15]; [22]) [%] | Pre-emergence action against VERPE in % (VERPE [16]; dosage 80 g/ha) [%] | Post-emergence action against SETVI in % (SETVI [17]; dosage 20 g/ha) [%] | other results
CCc1c(C(=O)Nc2nnnn2CC)ccc(C(F)(F)F)c1C(=O)NC(C)C1CC1 (stereo not shown) [Example 2-341] | 90 | 80 | 90 | 100 | 90 | 100 | 90 | 100 | 100 | 100 | 100 | 100 | 80 | 90 | 90 | 80 | 100 | 100 | 90 |  | Post-emergence action against ECHCG in % (ECHCG [1]; dosage 5 g/ha): 80%; Pre-emergence action against ALOMY (ALOMY [5]; 20 g/ha, scored visually after 3 weeks, 100% = plants have died, 0% = like control plants): 80%; Pre-emergence action against PHBPU in % (PHBPU [11]): 80%
CSc1c(C(=O)Nc2nnnn2C)ccc(C(F)(F)F)c1C(=O)NCC1CC1 [Example 1-84] | 100 | 90 | 80 | 100 | 100 | 100 |  | 100 | 100 | 100 | 100 | 100 | 90 | 100 | 100 |  | 100 | 100 | 100 | 100 | Post-emergence action against SETVI in % (SETVI [17]; dosage 5 g/ha): 100%; Post-emergence action against ALOMY in % (ALOMY [18]): 100%; Post-emergence action against PHBPU in % (PHBPU [2]; dosage 5 g/ha): 90%; Post-emergence action against VIOTR in % (VIOTR [19]; 5 g/ha): 100%; Post-emergence action against VIOTR in % (VIOTR [19]; 20 g/ha): 100%; Post-emergence action against VERPE in % (VERPE [20]; 20 g/ha): 90%; Pre-emergence action against VERPE in % (VERPE [16]; dosage 20 g/ha): 80%
CSc1c(C(=O)Nc2nnnn2C)ccc(C(F)(F)F)c1C(=O)NC(C)C1CC1 (stereo not shown) [Example 1-352] | 100 | 90 | 80 | 100 | 80 | 100 | 100 | 100 | 100 | 100 | 100 | 100 | 90 | 80 | 100 | 100 | 100 | 100 | 100 | 100 | Post-emergence action against ECHCG in % (ECHCG [1]; dosage 5 g/ha): 100%; Post-emergence action against SETVI in % (SETVI [17]; dosage 5 g/ha): 80%; Post-emergence action against ALOMY in % (ALOMY [18]): 80%; Post-emergence action against VIOTR in % (VIOTR [19]; 5 g/ha): 100%; Post-emergence action against VIOTR in % (VIOTR [19]; 20 g/ha): 100%; Post-emergence action against MATIN in % (MATIN [10]; dosage 5 g/ha): 80%; Post-emergence action against VERPE in % (VERPE [20]; 20 g/ha): 90%; Pre-emergence action against VERPE in % (VERPE [16]; dosage 20 g/ha): 90%
CCn1nnnc1NC(=O)c1ccc(C(F)(F)F)c(C(=O)NCC(F)(F)F)c1C [Example 2-29] | 80 | 80 | 80 | 100 | 80 |  | 100 | 100 | 100 | 100 | 100 | 100 | 80 | 100 | 100 | 80 | 100 | 100 |  | 80 | Pre-emergence action against DIGSA in % (DIGSA; dosage 20 g/ha): 90%; Pre-emergence action against DIGSA in % (DIGSA; dosage 80 g/ha): 100%; Pre-emergence action against PHBPU in % (PHBPU [11]): 80%
CSc1c(C(=O)Nc2nnnn2C)ccc(C(F)F)c1C(=O)NC(C)C1CC1 (stereo not shown) [Example 1-353] | 100 | 90 | 80 | 100 | 90 | 100 | 100 | 100 | 100 | 100 | 100 | 100 | 90 |  | 100 | 80 | 100 | 100 | 100 | 100 | Post-emergence action against ECHCG in % (ECHCG [1]; dosage 5 g/ha): 100%; Post-emergence action against ALOMY in % (ALOMY [18]): 80%; Pre-emergence action against ECHCG in % (ECHCG [4]; 20 g/ha): 90%; Post-emergence action against VIOTR in % (VIOTR [19]; 5 g/ha): 100%; Post-emergence action against VIOTR in % (VIOTR [19]; 20 g/ha): 100%; Post-emergence action against MATIN in % (MATIN [10]; dosage 5 g/ha): 80%; Post-emergence action against VERPE in % (VERPE [20]; 5 g/ha): 80%; Post-emergence action against VERPE in % (VERPE [20]; 20 g/ha): 90%
CCn1nnnc1NC(=O)c1ccc(C(F)F)c(C(=O)NC2CC2)c1SC [Example 2-89] | 90 | 80 | 80 | 90 | 100 | 100 | 90 | 100 | 90 | 100 | 100 | 100 | 90 | 90 | 100 | 90 | 90 | 100 | 90 | 100 | Post-emergence action against SETVI in % (SETVI [17]; dosage 5 g/ha): 90%; Post-emergence action against ALOMY in % (ALOMY [18]): 90%; Post-emergence action against VIOTR in % (VIOTR [19]; 5 g/ha): 90%; Post-emergence action against VIOTR in % (VIOTR [19]; 20 g/ha): 90%; Post-emergence action against MATIN in % (MATIN [10]; dosage 5 g/ha): 90%; Post-emergence action against ABUTH in % (ABUTH [14]; dosage 5 g/ha): 90%; Post-emergence action against VERPE in % (VERPE [20]; 5 g/ha): 80%; Post-emergence action against VERPE in % (VERPE [20]; 20 g/ha): 90%
